In the NIST ThermoML archive (doi:10.1016/j.jct.2004.12.004):

Assay: mn = molality of the nth substance listed, in mol/kg
Details: 350 kPa, Liquid, Extra sensitive DSC

OC[C@H]1O[C@@](CO)(O[C@H]2O[C@H](CO)[C@@H](O)[C@H](O)[C@H]2O)[C@@H](O)[C@@H]1O [D-sucrose] + O
Details	apparent molar heat capacity [J/K/mol]
278.15 K, m1 = 0.01461	532.5
278.15 K, m1 = 0.03048	533.5
278.15 K, m1 = 0.06172	533.8
278.15 K, m1 = 0.1302	535.7
278.15 K, m1 = 0.2486	538.6
278.15 K, m1 = 0.4969	544.2
278.15 K, m1 = 0.746	548.9
278.15 K, m1 = 0.9972	554.2
278.15 K, m1 = 1.489	560.3
278.15 K, m1 = 1.99	566.8
278.15 K, m1 = 2.99	577.9
278.15 K, m1 = 3.995	587.9
283.15 K, m1 = 0.01461	567.4
283.15 K, m1 = 0.03048	567.3
283.15 K, m1 = 0.06172	568.9
283.15 K, m1 = 0.1302	569.8
283.15 K, m1 = 0.2486	572
283.15 K, m1 = 0.4969	575.9
283.15 K, m1 = 0.746	579.3
283.15 K, m1 = 0.9972	583.7
283.15 K, m1 = 1.489	587.9
283.15 K, m1 = 1.99	593.1
283.15 K, m1 = 2.99	601.8
283.15 K, m1 = 3.995	610
288.15 K, m1 = 0.01461	596.7
288.15 K, m1 = 0.03048	596.6
288.15 K, m1 = 0.06172	597.7
288.15 K, m1 = 0.1302	598.1
288.15 K, m1 = 0.2486	599.7
288.15 K, m1 = 0.4969	602.4
288.15 K, m1 = 0.746	604.7
288.15 K, m1 = 0.9972	608.3
288.15 K, m1 = 1.489	611
288.15 K, m1 = 1.99	614.9
288.15 K, m1 = 2.99	621.5
288.15 K, m1 = 3.995	628.2
293.15 K, m1 = 0.01461	622
293.15 K, m1 = 0.03048	621.8
293.15 K, m1 = 0.06172	622.6
293.15 K, m1 = 0.1302	622.7
293.15 K, m1 = 0.2486	623.7
293.15 K, m1 = 0.4969	625.6
293.15 K, m1 = 0.746	627.1
293.15 K, m1 = 0.9972	629.8
293.15 K, m1 = 1.489	631.4
293.15 K, m1 = 1.99	634.1
293.15 K, m1 = 2.99	639
293.15 K, m1 = 3.995	644.5
298.15 K, m1 = 0.01461	642.1
298.15 K, m1 = 0.03048	642.9
298.15 K, m1 = 0.06172	644
298.15 K, m1 = 0.1302	643.9
298.15 K, m1 = 0.2486	644.7
298.15 K, m1 = 0.4969	646
298.15 K, m1 = 0.746	646.9
298.15 K, m1 = 0.9972	649.1
298.15 K, m1 = 1.489	649.6
298.15 K, m1 = 1.99	651.6
298.15 K, m1 = 2.99	655.2
298.15 K, m1 = 3.995	659.4
303.15 K, m1 = 0.01461	660.7
303.15 K, m1 = 0.03048	662.1
303.15 K, m1 = 0.06172	663
303.15 K, m1 = 0.1302	663.2
303.15 K, m1 = 0.2486	663.8
303.15 K, m1 = 0.4969	664.5
303.15 K, m1 = 0.746	665.1
303.15 K, m1 = 0.9972	666.8
303.15 K, m1 = 1.489	666.5
303.15 K, m1 = 1.99	667.8
303.15 K, m1 = 2.99	670.4
303.15 K, m1 = 3.995	673.5
308.15 K, m1 = 0.01461	679
308.15 K, m1 = 0.03048	679.1
308.15 K, m1 = 0.06172	680.3
308.15 K, m1 = 0.1302	680.3
308.15 K, m1 = 0.2486	680.6
308.15 K, m1 = 0.4969	680.9
308.15 K, m1 = 0.746	681.1
308.15 K, m1 = 0.9972	682.4
308.15 K, m1 = 1.489	681.8
308.15 K, m1 = 1.99	682.4
308.15 K, m1 = 2.99	683.9
308.15 K, m1 = 3.995	686.3
313.15 K, m1 = 0.01461	695.3
313.15 K, m1 = 0.03048	695.1
313.15 K, m1 = 0.06172	696.3
313.15 K, m1 = 0.1302	696.2
313.15 K, m1 = 0.2486	696.3
313.15 K, m1 = 0.4969	696.3
313.15 K, m1 = 0.746	696.2
313.15 K, m1 = 0.9972	697.3
313.15 K, m1 = 1.489	696.3
313.15 K, m1 = 1.99	696.4
313.15 K, m1 = 2.99	697.1
313.15 K, m1 = 3.995	698.8
318.15 K, m1 = 0.01461	709.1
318.15 K, m1 = 0.03048	709.4
318.15 K, m1 = 0.06172	710.4
318.15 K, m1 = 0.1302	710.3
318.15 K, m1 = 0.2486	710.3
318.15 K, m1 = 0.4969	710.1
318.15 K, m1 = 0.746	709.8
318.15 K, m1 = 0.9972	710.5
318.15 K, m1 = 1.489	709.1
318.15 K, m1 = 1.99	709.1
318.15 K, m1 = 2.99	709.1
318.15 K, m1 = 3.995	710.2
323.15 K, m1 = 0.01461	722.3
323.15 K, m1 = 0.03048	722.4
323.15 K, m1 = 0.06172	723.4
323.15 K, m1 = 0.1302	723.1
323.15 K, m1 = 0.2486	723
323.15 K, m1 = 0.4969	722.6
323.15 K, m1 = 0.746	722
323.15 K, m1 = 0.9972	722.7
323.15 K, m1 = 1.489	721
323.15 K, m1 = 1.99	720.7
323.15 K, m1 = 2.99	720.3
323.15 K, m1 = 3.995	720.8
328.15 K, m1 = 0.01461	735.7
328.15 K, m1 = 0.03048	735.3
328.15 K, m1 = 0.06172	735.9
328.15 K, m1 = 0.1302	735.3
328.15 K, m1 = 0.2486	735.1
328.15 K, m1 = 0.4969	734.6
328.15 K, m1 = 0.746	733.9
328.15 K, m1 = 0.9972	734.3
328.15 K, m1 = 1.489	732.5
328.15 K, m1 = 1.99	731.9
328.15 K, m1 = 2.99	730.9
328.15 K, m1 = 3.995	731.1
333.15 K, m1 = 0.01461	746.9
333.15 K, m1 = 0.03048	746.6
333.15 K, m1 = 0.06172	747
333.15 K, m1 = 0.1302	746.5
333.15 K, m1 = 0.2486	746.2
333.15 K, m1 = 0.4969	745.4
333.15 K, m1 = 0.746	744.6
333.15 K, m1 = 0.9972	745
333.15 K, m1 = 1.489	742.9
333.15 K, m1 = 1.99	742.1
333.15 K, m1 = 2.99	740.7
333.15 K, m1 = 3.995	740.5
338.15 K, m1 = 0.01461	756.6
338.15 K, m1 = 0.03048	757.3
338.15 K, m1 = 0.06172	757.4
338.15 K, m1 = 0.1302	756.8
338.15 K, m1 = 0.2486	756.4
338.15 K, m1 = 0.4969	755.6
338.15 K, m1 = 0.746	754.7
338.15 K, m1 = 0.9972	754.9
338.15 K, m1 = 1.489	752.7
338.15 K, m1 = 1.99	751.7
338.15 K, m1 = 2.99	750
338.15 K, m1 = 3.995	749.3
343.15 K, m1 = 0.01461	765.9
343.15 K, m1 = 0.03048	766.2
343.15 K, m1 = 0.06172	766.8
343.15 K, m1 = 0.1302	766.3
343.15 K, m1 = 0.2486	766
343.15 K, m1 = 0.4969	765.2
343.15 K, m1 = 0.746	764.2
343.15 K, m1 = 0.9972	764.2
343.15 K, m1 = 1.489	762
343.15 K, m1 = 1.99	760.8
343.15 K, m1 = 2.99	759
343.15 K, m1 = 3.995	758
348.15 K, m1 = 0.01461	774.3
348.15 K, m1 = 0.03048	775.2
348.15 K, m1 = 0.06172	775.7
348.15 K, m1 = 0.1302	775.1
348.15 K, m1 = 0.2486	774.7
348.15 K, m1 = 0.4969	774
348.15 K, m1 = 0.746	772.8
348.15 K, m1 = 0.9972	772.7
348.15 K, m1 = 1.489	770.4
348.15 K, m1 = 1.99	769.1
348.15 K, m1 = 2.99	767
348.15 K, m1 = 3.995	765.8
353.15 K, m1 = 0.01461	781.7
353.15 K, m1 = 0.03048	783.6
353.15 K, m1 = 0.06172	784
353.15 K, m1 = 0.1302	783.3
353.15 K, m1 = 0.2486	783
353.15 K, m1 = 0.4969	782.2
353.15 K, m1 = 0.746	780.9
353.15 K, m1 = 0.9972	780.7
353.15 K, m1 = 1.489	778.3
353.15 K, m1 = 1.99	777
353.15 K, m1 = 2.99	774.6
353.15 K, m1 = 3.995	773.2
358.15 K, m1 = 0.01461	791
358.15 K, m1 = 0.03048	791.1
358.15 K, m1 = 0.06172	791.9
358.15 K, m1 = 0.1302	791.1
358.15 K, m1 = 0.2486	790.6
358.15 K, m1 = 0.4969	789.8
358.15 K, m1 = 0.746	788.4
358.15 K, m1 = 0.9972	788.2
358.15 K, m1 = 1.489	785.7
358.15 K, m1 = 1.99	784.3
358.15 K, m1 = 2.99	781.7
358.15 K, m1 = 3.995	780
363.15 K, m1 = 0.01461	797.3
363.15 K, m1 = 0.03048	797.3
363.15 K, m1 = 0.06172	798
363.15 K, m1 = 0.1302	797.4
363.15 K, m1 = 0.2486	797.1
363.15 K, m1 = 0.4969	796.6
363.15 K, m1 = 0.746	795.1
363.15 K, m1 = 0.9972	794.7
363.15 K, m1 = 1.489	792.3
363.15 K, m1 = 1.99	790.9
363.15 K, m1 = 2.99	788.1
363.15 K, m1 = 3.995	786.3
